This is an account of results in a melting point compilation (Tetko et al.; mined from patent text by program, amines drawn as free bases though some values may be those of a salt).

`N#Cc1ncccc1Oc1cccc(F)c1`: the melting point was in the range of 92 to 93 °C.
In turn, `CC(C(N)=O)C(=O)Nc1ccc(OCc2cccc(F)c2)cc1` (centres undefined) showed a melting point of 206 °C.
Turning to `O=S1(=O)c2cccc3cccc(c23)N1CCN1CCN(c2ccc(O)cc2)CC1`, the melting point came out at 235 °C.
For the molecule `Cc1cc(=O)[nH]nc1-c1ccc2c(c1)CC1(CCN(C3CCC3)CC1)O2`, the melting point was 243 to 245 °C.
For `CSc1ccc(C(=O)N2CC2C#N)nn1` (centres undefined) the value was 97 to 100 °C; for `O=C(NCCCOCCCNC(=O)c1ccc(OC(F)(F)F)cc1)c1ccc(OC(F)(F)F)cc1`, 118 to 120 °C; for `CCOC(=O)CC1SC(c2cc(C(C)(C)C)c(O)c(C(C)(C)C)c2)N(CCCBr)C1=O` (centres undefined), 154 to 155 °C.
Molecule `CN1Cc2c(Cl)cc(F)c(-n3c(=O)cc(C(F)(F)F)n(C)c3=O)c2O1` returned a melting point of 218 to 219 °C.
`CC(C)(C)c1cc(-c2n[nH]c(=O)o2)cc(C(C)(C)C)c1O` displayed a melting point of 246 °C.
As to `O=C(Nc1cccnc1)c1c(OCC2CC2)ccc2oc3ccccc3c12`, the melting point fell in the range of 238 to 240 °C.
In turn, `Cc1cccc(OCC(=S)NCCN2CCCC2)c1C` showed a melting point of 62 to 64 °C.
As for `N#Cc1cccc(NC(=O)n2ccnc2)c1`, the figure is 174 to 176 °C; as for `COc1ccc(NC(=O)c2ccccc2)cc1NCc1ccc2c(c1)OCCO2`, 174 to 175 °C.
In turn, `CC1(C)CNc2cc(C(F)(F)F)ccc2C1=O` registered a melting point of 121 to 122 °C.
The molecule `CCCCCCCCC#CCCCCCCCC(=O)Nc1nc(CC(=O)O)cs1` came in with a melting point of 95.5 to 96.5 °C.
Molecule `CCCS(=O)(=O)c1sc(C(N)=O)c2c1-c1c(cnn1CC)CC2` showed a melting point of 143 to 144 °C.
Regarding `CCOC(=O)C1CC2CC(=O)CCC2CN1C(=O)OC` (centres undefined), the melting point lay in the range of 79 to 80 °C.
As to `COC(=O)N1C2=C(C(=O)CC(C)(C)C2)C(c2ccc([N+](=O)[O-])cc2)C2=C1CC(C)(C)CC2=O`, the melting point lay in the range of 189 to 190 °C.
Molecule `CCc1cc(NC(=O)N2CCN(c3ccsc3)CC2)c(OC)nc1C` had a melting point of 108 to 110 °C.
Turning to `CCN(CC)c1cccc2nc(C(O)c3ccc(Cl)cc3Cl)n(CCO)c12` (centres undefined), the melting point fell in the range of 177 to 179 °C.
The molecule `CN1C=CC(c2ccccc2)=C(O)C1` gave a melting point of 154 to 157 °C.
As for `NC(=O)c1cccc(-c2cccc3sc(Cc4ccc(F)c(F)c4)cc23)c1`, the melting point is 189 to 190 °C.
On to `Cc1nc(N2CCN(Cc3ccc(C(F)(F)F)cc3)C2=O)sc1CO`, for which the melting point lay within 153 to 154 °C.
The molecule `COc1nc(NC(=O)NS(=O)(=O)c2cc(Cl)ccc2C(=O)OC(C)C)nc(C(F)(F)F)n1` registered a melting point of 160 to 163 °C.
For the molecule `CCC(=O)Nc1ccc(C(=O)C=CN(C)C)cc1`, the melting point fell in the range of 161 to 163 °C.
`CC(C)(C)c1nn(-c2c(Cl)cc(C(F)(F)F)cc2Cl)c(Br)c1[N+](=O)[O-]` had a melting point of 105 to 108 °C.
For `Cn1c(-c2ccc([N+](=O)[O-])cc2)nc2ccccc21` the value was 208 to 209 °C; for `COCC1CCCN1S(=O)(=O)c1ccc2c(c1)C1(OCCCO1)C1=NCC(C)(C)CN12` (centres undefined), 169 to 171 °C.
`CC(C)C(=O)Nc1ccn(C)c1` displayed a melting point of 125 to 126 °C.
As for `O=C(O)CCc1cn(Cc2ccc(OCc3cccc(-c4cnccn4)c3)cc2)cc1-c1ccccc1`, the figure is 91 to 92 °C; as for `COC(=O)CCC(C)C1CCC2C3CC=C4C(C)(C)C(O)CCC4(C)C3CCC12C` (centres undefined), 136 to 138 °C.
Take `Cc1oc(-c2ccc(C(F)(F)F)cc2)nc1-c1ccc(-c2cc(Br)c(OC(Cc3ccccc3)C(=O)O)c(Br)c2)cc1` (centres undefined): the melting point was in the range of 241 to 243 °C.
Molecule `O=C(CC(c1cc(F)ccc1F)S(=O)(=O)c1ccc(Cl)cc1)N1CCCC1` (centres undefined) came in with a melting point of 122 to 125 °C.
The molecule `CC(=O)N1CCC(C(=NNc2ccccc2)c2ccc(Br)cc2F)CC1` registered a melting point of 174 to 176 °C.
In turn, `O=C(C=Cc1cc([N+](=O)[O-])ccc1Cl)N1CCc2c([nH]c3ccccc23)C1c1ccc2c(c1)OCO2` (centres undefined) registered a melting point of 146 °C.
Regarding `COc1ccc2c(c1CC1CCCC1)CC[N+]([O-])=C2Cc1c(Cl)cncc1Cl`, the melting point was in the range of 176 to 178 °C.
Consider `CC1(C)CCc2c(N3CCOCC3)nc3sc4c(NCCc5ccccn5)ncnc4c3c2C1`, for which the melting point fell in the range of 238 to 239 °C.
For `C=CCOC(=O)c1ccc(OC(=O)c2ccc(O)c(C34CC5CC(CC(C5)C3)C4)c2)cc1` the value was 175 to 177 °C; for `CCN(CC)CCOc1ccc(C(=O)c2c(-c3ccccc3)oc3ccccc23)cc1`, 125 to 127 °C.
`O=C(O)c1cc(F)c(F)c(Cl)c1F` displayed a melting point of 109 to 111 °C.
Consider `CNC(=O)c1ccccc1Nc1nc(Nc2c(OC)ccc3c2CCOC(=O)N3C)ncc1Cl`, for which the melting point is 160 °C.
The molecule `O=S(=O)(Nc1cccc(C(=NO)c2cccnc2)c1)c1ccc(Cl)cc1` showed a melting point of 170 °C.
Regarding `O=C(Nc1nc(Cl)c(C(=O)NCc2ccccc2)s1)c1ccccc1`, the melting point was in the range of 247 to 249 °C.
On to `CC[Si](CC)(CC)CSc1cc(C(C)(C)C)c(O)c(C(C)(C)C)c1`, for which the melting point lay within 58 to 60 °C.
The molecule `CCCCCCCCCCCCCCCCOCCC(O)CO` (centres undefined) gave a melting point of 60 to 61 °C.
For `CCCCCC(CC(=O)Nc1cc(C(=O)NC(=O)C(C)C)ccc1C(C)(C)C)c1ccc(OC)cc1OC` (centres undefined) the value was 157 to 159 °C; for `CN(C)c1ncc(CN2C(=O)C3(COc4cc5c(cc43)OCO5)c3ccccc32)s1` (centres undefined), 200 to 202 °C; for `O=C(O)c1ccccc1Sc1cccc(OCc2ccc3cc(Cl)ccc3n2)c1`, 177 to 179 °C.
Turning to `CP1(=O)OCc2ccccc21` (centres undefined), the melting point is 70 to 72 °C.
As for `CN1CC2CC1CN2C1=Nc2cc(Cl)ccc2Sc2ccccc21` (centres undefined), the melting point lay in the range of 62 to 64 °C.
Regarding `O=S1(=O)c2cccc3cccc(c23)N1CCN1CCN(c2noc3ccccc23)CC1`, the melting point was determined as 148 °C.
For the molecule `Cn1cnc(C(c2ccc(Cl)cc2)c2ccc3c(c2)c(-c2ccccc2)cc(=O)n3C)c1` (centres undefined), the melting point came to 150 °C.
As for `O=C(Cl)c1cc(OCc2ccccc2)cc(OCc2ccccc2)c1`, the figure is 73 to 74 °C; as for `O=[N+]([O-])CS(=O)(=O)c1ccc2c(c1)OCO2`, 131 to 132 °C; as for `Oc1ncc(-c2cccc(Cl)c2)cn1`, 235 to 236 °C.
Molecule `CN1C(=O)C2(COc3cc4c(cc32)OCCO4)c2c(N3CCOCC3)cccc21` (centres undefined) came in with a melting point of 246 to 249 °C.
Turning to `CCCC(=O)O[C@H]1[C@H](OCc2ccccc2)[C@@H](OCc2ccccc2)[C@H](OCc2ccccc2)[C@@H](OCc2ccccc2)[C@]1(O)CCC` (racemic), the melting point stood at 143 °C.
Take `CC(=O)c1ccc(Cc2c(Cl)cc(NN=Cc3ccccc3)cc2Cl)cc1`: the melting point is 137 to 139 °C.
Turning to `COc1nc(Cl)cnc1NS(=O)(=O)c1cccc(F)c1Cl`, the melting point was 159 to 160 °C.
`CN1CCN(c2c(F)c(NCc3ccccc3)c3nc(CC(N)=O)n(C4CC4)c3c2F)CC1` had a melting point of 157 to 159 °C.
As for `CCCCC1(CCCC)CCc2c(OCc3ccc4ccccc4n3)ccc(F)c2C1O` (centres undefined), the figure is 128 to 129 °C; as for `CCCN(c1cccc2cc(-c3nccs3)[nH]c12)S(=O)(=O)c1cccs1`, 130 to 131 °C.
The molecule `Cc1cccc2nc(-c3ccccc3)sc12` registered a melting point of 53 to 54 °C.
For the molecule `COC(=O)C(NS(=O)(=O)c1ccc(-c2ccc(NC(=O)c3oc4cccc(C(C)=O)c4c3C)cc2)cc1)C(C)C` (centres undefined), the melting point is 197 to 199 °C.
For `COc1ccc2c(cccc2[C@H]2CO[C@H](CCCNC(=O)OCc3nccn3C(c3ccccc3)(c3ccccc3)c3ccccc3)OC2)c1` the value was 130 to 132 °C; for `COc1cc2c(cc1OC)CN(CCCOc1ccc([N+](=O)[O-])cc1)CC2`, 100 °C; for `CCCCS(=O)(=O)NC(CNC(=O)c1cccc(C(=O)C2CCC3(CCNCC3)CC2)c1)C(=O)O` (centres undefined), 155 to 157 °C.
The molecule `Cn1c(C(F)(F)F)cc(=O)n(-c2c(F)cc(Cl)c3oc(CO)cc23)c1=O` displayed a melting point of 139 to 141 °C.
`N#Cc1cc(C(=O)NNC(=O)c2occc2-c2cccc(OCCc3ccccc3)c2)ccc1O` registered a melting point of 131 to 134 °C.
Molecule `CC(C)(CCc1ccc(OCCO)cc1)NCC(O)c1ccccc1` (centres undefined) gave a melting point of 118 to 120 °C.
`COc1ccc(COc2ccc(-c3ccc(C(=O)O)c(=O)[nH]3)cc2OC)cc1OC` yielded a melting point of 217 to 218 °C.
In the case of `CCOC(=O)c1ccc(-c2ccc(-c3cccc(OCOC)c3)c(-c3ccc4c(c3)C(C)(C)CCC4(C)C)c2)cc1`, the melting point was 103 to 104 °C.
On to `Clc1ccc2c(c1)C(c1ccccc1Cl)NCc1c[nH]cc1-2` (centres undefined), for which the melting point fell in the range of 211 to 212 °C.
`ClCCc1cc(-c2ccc(Cl)cc2)n(-c2ccc(OCc3ccc4ccccc4n3)cc2)n1` came in with a melting point of 105 °C.
Turning to `CSc1nnc(-c2ccc3ncn(-c4ccc(OC(F)(F)F)cc4)c3c2)o1`, the melting point lay in the range of 200 to 201 °C.
The molecule `CCc1nc2cc(Nc3nccc(-c4ccc(N5CCN(CC)CC5)nc4)n3)ccc2o1` displayed a melting point of 174 to 176 °C.
The molecule `COc1cc2nc(C)nc(N3CCN(C(=O)Nc4ccc(Oc5ccccc5)cc4)CC3)c2cc1OC` showed a melting point of 146 to 147 °C.
The molecule `CCC(=O)Nc1c([N+](=O)[O-])c(C(C)(C)C)nn1-c1c(Cl)cc(C(F)(F)F)cc1Cl` had a melting point of 151 to 152 °C.
With `COC(=O)C(OC)(OC)C(=O)Nc1cc(Cl)cc(Cl)c1`, the melting point fell in the range of 160 to 164 °C.
As to `COc1cc([N+](=O)[O-])ccc1N1CCN(CCCNc2c(C)c(=O)n(C)c(=O)n2C)CC1`, the melting point lay in the range of 131 to 133 °C.
The molecule `N#CSc1ccc(N)c(N)c1` yielded a melting point of 108 to 110 °C.
`O=C1N(CC2CCCO2)c2ccccc2C12COc1cc3c(cc12)CCCC3` (centres undefined) returned a melting point of 139 to 141 °C.
On to `COc1ccc(Oc2cnc(N)nc2N)c(C(C)C)c1`, for which the melting point was 170 to 171 °C.
In turn, `O=C(Nc1nnn(CC(F)(F)F)n1)C(c1ccccc1)c1ccccc1` showed a melting point of 146 to 148 °C.

The melting point is the temperature of the solid-liquid transition.
